Assay results published in patent publication US20180238860A1, “INDIVIDUAL METHOD PREDICTIVE OF THE DNA-BREAKING GENOTOXIC EFFECTS OF CHEMICAL OR BIOCHEMICAL AGENTS” (priority 2015, published 2018).

Legend:
Assay type in all cases: cell-based, human
[1] = tested on: Hasp (spinal cord astrocyte cells); experiment: Micronuclei per 100 cells 24 h after contacting, Hasp
Procedure: (§1) In one embodiment, on receipt, the tissue sample (typically the biopsy) is established in the form of an amplifiable cell line without a viral or chemical transformation agent according to an ancillary procedure well known to culture laboratories, as underlined by the publication of Elkind et al. “The radiobiology of cultured mammalian cell”, Gordon and Breach (1967). Once the number of cells is sufficient (typically after 1 to 3 weeks), the first experiments are carried out using the process according to the invention. A cell sample is prepared: The cells are inoculated on glass coverslips in Petri dishes. A portion of these coverslips are contaminated with metals or pesticides or any other DNA-breaking chemical or biochemical agent at different concentrations. A further portion is not contaminated; it represents the spontaneous state. During contamination, the cells remain in the culture incubator at 37° C.
(§2) the cells are fixed in 3% paraformaldehyde and 2% sucrose for 15 minutes at ambient temperature and permeabilized in 20 mM HEPES buffer solution (4-(2-hydroxyethyl)-1-piperazine ethane sulfonic acid) at pH 7.4, 50 mM NaCl, 3 mM MgCl2, 300 mM sucrose, 0.5% Triton X-100 (a non-ionic surfactant having the formula t-Oct-C6H4-(OCH2CH2)×OH where x=9-10, CAS No. 9002-93-1, supplied for example by Sigma Aldrich) for 3 minutes. The glass coverslips are then washed in phosphate buffer saline (known as the acronym PBS) before immunological staining. The incubation took place for 40 min at 37° C. in PBS supplemented with 2% bovine serum albumin (known as the acronym BSA or fraction V, supplied for example by Sigma Aldrich) and was followed by a wash with PBS. Anti-pH2AX primary antibodies are used at a concentration of 1:800. The incubations with anti-mouse FITC or anti-rabbit TRITC secondary antibodies (1:100, supplied by Sigma Aldrich) were performed at 37° C. in 2% BSA for 20 minutes. Glass coverslips were treated with Vectashield™ containing DAPI (4,6-Diamidino-2-phenylindole) to label the nucleus. Staining with DAPI also makes it possible, indirectly, to determine the number of cells in phase G1 (nuclei with homogenous DAPI staining), in phase S (nuclei with numerous pH2AX foci), in phase G2 (nuclei with heterogeneous DAPI staining) and metaphases (visible chromosomes).
(§3) Counterstaining with DAPI (a DNA marker known to those skilled in the art) makes it possible to locate the nucleus to situate the cytoplasmic or nuclear location to quantify the micronuclei, which are complementary cell markers to the data on the foci.
(§4) The tables hereinafter summarize the results of numerous experiments which were carried out as described in the “Detailed description” section above.
(§5) In tables 3 and 4, “pH2AX” corresponds to the mean number of nuclear foci obtained with the marker pH2AX, 24 hours after contacting the cell sample with the chemical agent at the concentration C (NpH2AX(24 h, C)), and where “Micronuclei” corresponds to the mean number of micronuclei observed per 100 cells 24 hours after contacting the cell sample with the chemical agent at the concentration C(NMN(24 h, C)).
(§6) Table 4 presents a detection of number of pH2AX foci and number of micronuclei 24 hours after contacting control nervous system cell lines Ha (astrocyte cells), Hah (hippocampus astrocyte cells) and Hasp (spinal cord astrocyte cells) with a metallic compound (AlCl3, Cu, CuCl2, CuSO4, Pb(NO3)2, CdCl2, Cd-acetate or Cd-acetate-citrate) according to the concentration of said metallic compound used.

[2] = tested on: Hah (hippocampus astrocyte cells); experiment: Micronuclei per 100 cells 24 h after contacting, Hah
Procedure: as §1, §2, §3, §4, §5, §6

[3] = tested on: HMEC cells; experiment: Micronuclei per 100 cells 24 h after contacting, Table 4 lower part (HMEC); conditions: line cell blank (below Hasp)
Procedure: as §1, §2, §3, §4, §5

[4] = tested on: Ha (astrocyte cells); experiment: pH2AX foci 24 h after contacting, Ha astrocyte cells; conditions: for pH2AX: Ha, 24 hours after contacting
Procedure: as §1
(§7) For the contaminated cells, characteristics are acquired corresponding to the state after an incubation time with the DNA-breaking chemical or biochemical agent. Said characteristics are represented by foci corresponding to the marker pH2AX. The cells on glass coverslips are then fixed, lysed and hybridized. The following procedure, known per se (Bodgi et al, “A single formula to describe radiation-induced protein relocalization: towards a mathematical definition of individual radiosensitivity”, J Theor Biol. 21 p 333:135-45.2013):
as §2
(§8) The results are acquired using these coverslips on an immunofluorescence microscope (Olympus model for example). The reading may be direct (typically by counting the foci on at least 50 cells in G0/G1 for each point) or using dedicated image analysis software, or on an automated microscope; preferably the software or automated microscope methods are calibrated with manual determinations.
as §4
(§9) In tables 3 and 4, “pH2AX” corresponds to the mean number of nuclear foci obtained with the marker pH2AX, 24 hours after contacting the cell sample with the chemical agent at the concentration C (NpH2AX(24 h, C)), and where “Micronuclei” corresponds to the mean number of micronuclei observed per 100 cells 24 hours after contacting the cell sample with the chemical agent at the concentration C(NMN(24 h, C)). […]

[5] = tested on: Hah (hippocampus astrocyte cells); experiment: pH2AX foci 24 h after contacting, Hah hippocampus astrocyte cells
Procedure: as §1, §7, §2, §8, §4, §9

[6] = tested on: Hasp (spinal cord astrocyte cells); experiment: pH2AX foci 24 h after contacting, Hasp spinal cord astrocyte cells
Procedure: as §1, §7, §2, §8, §4, §9

[7] = tested on: HMEC cells; experiment: pH2AX foci 24 h after contacting, Table 4 lower part (HMEC endothelial cells); conditions: for pH2AX: line cell blank (below Hasp), 24 hours after contacting
Procedure: as §1, §7, §2, §8, §4, §5

[8] = tested on: Ha (astrocyte cells); experiment: Micronuclei per 100 cells 24 h after contacting, Ha astrocyte cells
Procedure: as §1, §2, §3, §4, §5, §6

[9] = tested on: 1BR3 cells; experiment: Micronuclei per 100 cells 24 h after contacting, 1BR3
Procedure: as §1, §2, §3, §4, §5

[10] = tested on: 1BR3 (control cells); experiment: pH2AX foci immunofluorescence 24 h after contacting, 1BR3 control fibroblasts; conditions: 1BR3, 24 hours after contacting (Table 3)
Procedure: as §1, §7, §2, §8
Commercial 1BR3 and 149 BR control fibroblasts were amplified according to the recommendations of the supplier (SIGMA-ALDRICH) until the number of cells sought was obtained. After obtaining a sufficient number of cells (generally after one to 3 weeks), the first experiments were conducted using the process according to the invention. The cells were inoculated on glass coverslips in Petri dishes.
The acquisition of the results was carried out using these coverslips on an immunofluorescence microscope (Olympus model). The reading was performed directly by counting the foci obtained with the marker pH2AX on at least 50 cells in G0/G1 for each point or using dedicated image analysis software (imageJ). […]

For [Cl][Al]([Cl])[Cl] [AlCl3], the Micronuclei ([1]; 3 μM) was 2 per 100 cells, the Micronuclei ([1]; 10 μM) was 4 per 100 cells and the Micronuclei ([1]; 30 μM) was 4 per 100 cells. For the same compound, the Micronuclei ([1]; 100 μM) was 7.3 per 100 cells, the Micronuclei ([1]; 300 μM) was 8.7 per 100 cells and the Micronuclei ([1]; 1000 μM) was 13 per 100 cells. It also gave a Micronuclei ([2]; 3 μM) of 2 per 100 cells, a Micronuclei ([2]; 10 μM) of 2 per 100 cells and a Micronuclei ([2]; 30 μM) of 4 per 100 cells. The Micronuclei ([2]; 100 μM) was 6 per 100 cells, the Micronuclei ([2]; 300 μM) was 20 per 100 cells and the Micronuclei ([2]; 1000 μM) was 30 per 100 cells. For the same compound, the Micronuclei ([3]; 3 μM) was 1.75 per 100 cells, the Micronuclei ([3]; 10 μM) was 3.75 per 100 cells and the Micronuclei ([3]; 30 μM) was 5 per 100 cells. The Micronuclei ([3]; 100 μM) was 4.33 per 100 cells, the Micronuclei ([3]; 300 μM) was 7.33 per 100 cells and the Micronuclei ([3]; 1000 μM) was 11.5 per 100 cells. For the same compound, the pH2AX ([4]; 3 μM) was 0.34 foci, the pH2AX ([4]; 10 μM) was 0.88 foci and the pH2AX ([4]; 30 μM) was 1.37 foci. For the same compound, the pH2AX ([4]; 100 μM) was 2.18 foci, the pH2AX ([4]; 300 μM) was 2.96 foci and the pH2AX ([4]; 1000 μM) was 6.04 foci. The H2AX foci ([4]; astrocytes (HA cells) contaminated with 100 μM) was 2 foci, the pH2AX ([5]; 3 μM) was 0.07 foci and the pH2AX ([5]; 10 μM) was 0.68 foci. It also gave a pH2AX ([5]; 30 μM) of 0.83 foci, a pH2AX ([5]; 100 μM) of 1.22 foci and a pH2AX ([5]; 300 μM) of 1.77 foci. It also gave a pH2AX ([5]; 1000 μM) of 2.28 foci, a pH2AX ([6]; 3 μM) of 0.84 foci and a pH2AX ([6]; 10 μM) of 0.46 foci. The pH2AX ([6]; 30 μM) was 0.74 foci, the pH2AX ([6]; 100 μM) was 2.15 foci and the pH2AX ([6]; 300 μM) was 1.7 foci. The pH2AX ([6]; 1000 μM) was 1.62 foci, the H2AX foci ([7]; endothelial cells (HMEC cells), 100 μM) was 3.7 foci and the pH2AX ([7]; 3 μM) was 3.2 foci. The pH2AX ([7]; 10 μM) was 3.2 foci, the pH2AX ([7]; 30 μM) was 5.7 foci and the pH2AX ([7]; 100 μM) was 3.7 foci. For the same compound, the pH2AX ([7]; 300 μM) was 4.5 foci, the pH2AX ([7]; 1000 μM) was 9.9 foci and the Micronuclei ([8]; 3 μM) was 10 per 100 cells. It also gave a Micronuclei ([8]; 10 μM) of 15 per 100 cells, a Micronuclei ([8]; 30 μM) of 16.7 per 100 cells and a Micronuclei ([8]; 100 μM) of 46.7 per 100 cells. The Micronuclei ([8]; 300 μM) was 56.7 per 100 cells and the Micronuclei ([8]; 1000 μM) was 70 per 100 cells.
With CCNc1nc(Cl)nc(NC(C)C)n1 [Atrazine] the Micronuclei ([9]; 0.01 μM) was 5 per 100 cells, the Micronuclei ([9]; 0.1 μM) was 6 per 100 cells and the Micronuclei ([9]; 1 μM) was 13.5 per 100 cells. For the same compound, the Micronuclei ([9]; 10 μM) was 15 per 100 cells, the Micronuclei ([9]; 20 μM) was 40 per 100 cells and the pH2AX ([10]; 0.01 μM) was 1 foci. For the same compound, the pH2AX ([10]; 0.1 μM) was 1.3 foci, the pH2AX ([10]; 0.3 μM) was 1.8 foci and the pH2AX ([10]; 10 μM) was 3.1 foci. It also gave a pH2AX ([10]; 30 μM) of 3.5 foci.
Compound CC(=O)[O-].CC(=O)[O-].[Cd+2] [Cd-acetate] has a Micronuclei ([3]; 10 μM) of 5 per 100 cells, a Micronuclei ([3]; 30 μM) of 10 per 100 cells and a Micronuclei ([3]; 100 μM) of 10 per 100 cells. The pH2AX ([7]; 10 μM) was 5 foci, the pH2AX ([7]; 30 μM) was 5.5 foci and the pH2AX ([7]; 100 μM) was 7 foci.
Compound [Cl][Cu][Cl] [CuCl2] has a Micronuclei ([3]; 3 μM) of 4 per 100 cells, a Micronuclei ([3]; 10 μM) of 6.7 per 100 cells and a Micronuclei ([3]; 30 μM) of 5.3 per 100 cells. It also gave a Micronuclei ([3]; 100 μM) of 6.7 per 100 cells, a Micronuclei ([3]; 300 μM) of 7.3 per 100 cells and a Micronuclei ([3]; 1000 μM) of 4 per 100 cells. It also gave a pH2AX ([7]; 3 μM) of 1.6 foci, a pH2AX ([7]; 10 μM) of 1.9 foci and a pH2AX ([7]; 30 μM) of 1.6 foci. It also gave a pH2AX ([7]; 100 μM) of 1.5 foci, a pH2AX ([7]; 300 μM) of 5.3 foci and a pH2AX ([7]; 1000 μM) of 21.4 foci.
